Measurements reported in patent US20100075960A1 (priority 2006, published 2010).
pIC50: −log10 of the molar value.

Test system: HCT116
Assay: Inhibition of cell proliferation, HCT116
Type: cell-based
Settings: Homo sapiens, HCT-116; 72 h treatment; methylene blue or CellTiter-Glo
Protocol: II. Inhibition of Cell Proliferation by PLK1 Inhibitors.
Exponentially growing cell lines of different tumor origins, cultured in appropriate media containing 10% fetal bovine serum at 37° C. in a 5% CO2 incubator were plated in 96 or 384-well plates. Twenty four hours post-plating, cells were treated with different concentrations of test compounds ranging from 20 μM to 0.04 nM. Several wells were left untreated as a control. Seventy two hours post-treatment, cell numbers were determined using different techniques; 100 μl per well of methylene blue (Sigma M9140) (0.5% in 50:50 Ethanol:water), or 10-100 μl per well of CellTiter-Glo (Promega #G7573), depending on well size. For methylene blue staining, stain was incubated at room temperature for 30 minutes before plates were rinsed and dye solubilized in 1% N-lauroyl sarcosine, sodium salt, (Sigma L5125, in PBS). Plates were read on a microplate reader, measuring the OD at 620 nm. For CellTiter-Glo, plates were incubated at room temperature for 15 minutes and the chemiluminescent signal was read on the Victor V or Envison 2100 reader.
Percent inhibition of cell growth was expressed as percent proliferation relative to 100% proliferation (control). Concentration of test compound that inhibited 50% of cell growth (IC50) was determined by 4 parameter fit of data using XLfit, (value of no cell control was substracted from all samples for background). The data are shown in Table 1 and Table 2 below and represent a compilation of several different experiments each performed using the general parameters outlined above, although minor variations may have been employed in some instances, in Table 1 and Table 2, +=IC50>1 μM; ++=IC50 0.5-1 μM: +++=IC50<0.5 μM.

pIC50 | Structure (SMILES)
< 6.00 | CC(Oc1cc(-n2cnc3cc(-c4cnn(C)c4)ccc32)sc1C(N)=O)c1cccc(OC2CCNCC2)c1 (racemic) [Example 73, (±)-5-[5-(1-Methyl-1H-pyrazol-4-yl)-1H-benzimidazol-1yl[-3-({1-[3-(4-piperidinyloxy)phenyl]ethyl}oxy)-2-thiophenecarboxamide]
> 6.30 | CC(Oc1cc(-n2cnc3cc(-c4cnn(C)c4)ccc32)sc1C(N)=O)c1cccc(OC2CCN(C)CC2)c1 (racemic) [Example 74, (±)-3-[(1-{3-[(1-methyl-4-piperidinyl)oxy]phenyl}ethyl)oxy]-5-[5-(1-methyl-1H-pyrazol-4-yl)-1H-benzimidazol-1-yl]-2-thiophenecarboxamide]
> 6.30 | CC(Oc1cc(-n2cnc3cc(-c4cnn(C)c4)ccc32)sc1C(N)=O)c1cccc(OC2CCNCC2)c1F (racemic) [Example 75]
> 6.30 | CC(Oc1cc(-n2cnc3cc(-c4cnn(C)c4)ccc32)sc1C(N)=O)c1cccc(OC2CCN(C)CC2)c1F (racemic) [Example 76, (±)-3-[(1-{2-Fluoro-3-[(1-methyl-4-piperidinyl)oxy]phenyl}ethyl)oxy]-5-[5-(1-methyl-1H-pyrazol-4-yl)-1H-benzimidazol-1-yl]-2-thiophenecarboxamide]
< 6.00 | CC(Oc1cc(-n2cnc3cc(-c4cnn(C)c4)ccc32)sc1C(N)=O)c1ccnc(OC2CCN(C)CC2)n1 (racemic) [Example 78, (±)-3-[(1-(2-[(1-methyl-4-piperidinyl)oxy]-4-pyrimidinyl}ethyl)oxy]-5-[5-(1-methyl-1H-pyrazol-4-yl)-1H-benzimidazol-1-yl]-2-thiophenecarboxamide]
< 6.00 | CC(Oc1cc(-n2cnc3cc(-c4cnn(C)c4)ccc32)sc1C(N)=O)c1ccnc(OC2CCNCC2)c1 (racemic) [Example 79, (±)-5-[5-(1-Methyl-1H-pyrazol-4-yl)-1H-benzimidazol-1-yl]-3-({1-[2-(4-piperidinyloxy)-4-pyridinyl]ethyl}oxy)-2-thiophenecarboxamide]
< 6.00 | CC(Oc1cc(-n2cnc3cc(-c4cnn(C)c4)ccc32)sc1C(N)=O)c1cccc(OC2CCNCC2)n1 (racemic) [Example 81, (±)-5-[5-(1-Methyl-1H-pyrazol-4-yl)-1H-benzimidazol-1-yl]-3-({1-[6-(4-piperidinyloxy)-2-pyridinyl]ethyl}oxy)-2-thiophenecarboxamide]
< 6.00 | CC(Oc1cc(-n2cnc3cc(-c4cnn(C)c4)ccc32)sc1C(N)=O)c1cccc(OC2CCN(C)CC2)n1 (racemic) [Example 82, (±)-3-[(1-{6-[(1-Methyl-4-piperidinyl)oxy]-2-pyridinyl)ethyl)oxy]-5-[5-(1-methyl-1H-pyrazol-4-yl)-1H-benzimidazol-1-yl]-2-thiophenecarboxamide]
> 6.30 | C[C@@H](Oc1cc(-n2cnc3cc(-c4cccnc4)ccc32)sc1C(N)=O)c1cccc(OC2CCN(C)CC2)c1Cl [Example 11, 3-[((1R)-1-[2-chloro-3-[(1-methyl-4-piperidinyl)oxy]phenyl}ethyl)oxy}-5-[5-(3-pyridinyl)-1H-benzimidazol-1-yl]-2-thiophenecarboxamide]

Continued, molecule first:

Structure (SMILES) | pIC50
CC(Oc1cc(-n2cnc3cc(-c4cnn(C)c4)ccc32)sc1C(N)=O)c1ccnc(OC2CCNCC2)n1 (racemic) [Example 77, (±)-5-[5-(1-Methyl-1H-pyrazol-4-yl)-1H-benzimidazol-1-yl]-3-({1-[2-(4-piperidinyloxy-4-pyrimidinyl]ethyl}oxy)-2-thiophenecarboxamide] | < 6.00
COc1cc2ncn(-c3cc(O[C@H](C)c4cccc(NCC5CCNCC5)c4Cl)c(C(N)=O)s3)c2cc1OC [Example 1] | 6.00 to 6.30
COc1cc2ncn(-c3cc(O[C@H](C)c4cccc(NCC5CCN(C)CC5)c4Cl)c(C(N)=O)s3)c2cc1OC [Example 2] | > 6.30
C[C@@H](Oc1cc(-n2cnc3ccc(C#N)cc32)sc1C(N)=O)c1cccc(OC2CCN(C)CC2)c1Cl [Example 4, 3-((1R)-1-{2-chloro-3-[(1-methylpiperidin-4-yl)oxy]phenyl}-ethoxy)-5-(6-cyano-1H-benzimidazol-1-yl)thiophene-2-carboxamide] | > 6.30
C[C@@H](Oc1cc(-n2cnc3ccc(C#N)cc32)sc1C(N)=O)c1cccc(OC2CCNCC2)c1Cl [Example 5, 3-{(1R)-1-[2-chloro-3-(piperidin-4-yloxy)phenyl]ethoxy}-5-(6-cyano-1H-benzimidazol-1-yl)thiophene-2-carboxamide] | > 6.30
C[C@@H](Oc1cc(-n2cnc3ccc(Br)cc32)sc1C(N)=O)c1cccc(OC2CCN(C)CC2)c1Cl [Example 6, 5-(6-Bromo-1H-benzimidazol-1-yl)-3-[((1R)-1-{2-chloro-3-[(1-methyl-4-piperidinyl)oxy]phenyl}ethyl)oxy]-2-thiophenecarboxamide] | > 6.30
C[C@@H](Oc1cc(-n2cnc3ccc(Br)cc32)sc1C(N)=O)c1cccc(OC2CCNCC2)c1Cl [Example 7, 5-(6-Bromo-1H-benzimidazol-1-yl)-3-({(1R)-1-[2-chloro-3-(4-piperidinyloxy)phenyl]ethyl}oxy)-2-thiophenecarboxamide] | > 6.30
C[C@@H](Oc1cc(-n2cnc3cc(Cl)ccc32)sc1C(N)=O)c1cccc(OC2CCNCC2)c1Cl [Example 8, 5-(5-Chloro-1H-benzimidazol-1-yl)-3-({(1R)-1-[2-chloro-3-(4-piperidinyloxy)phenyl]ethyl}oxy)-2-thiophenecarboxamide] | > 6.30
Cc1ccc(-c2ccc3c(c2)ncn3-c2cc(O[C@H](C)c3cccc(OC4CCNCC4)c3Cl)c(C(N)=O)s2)cn1 [Example 9, 3-({(1R)-1-[2-chloro-3-(4-piperidinyloxy)phenyl]ethyl}oxy)-5-[5-(6-methyl-3-pyridinyl)-1H-benzimidazol-1-yl]-2-thiophenecarboxamide] | > 6.30
Cc1ccc(-c2ccc3c(c2)ncn3-c2cc(O[C@H](C)c3cccc(OC4CCN(C)CC4)c3Cl)c(C(N)=O)s2)cn1 [Example 10, 3-[((1R)-1-[2-chloro-3-[(1-methyl-4-piperidinyl)oxy]phenyl}ethyl)oxy]-5-[5-(6-methyl-3-pyridinyl)-1H-benzimidazol-1-yl]-2-thiophenecarboxamide] | > 6.30
C[C@@H](Oc1cc(-n2cnc3cc(-c4cccnc4)ccc32)sc1C(N)=O)c1cccc(OC2CCNCC2)c1Cl [Example 12, 3-({(1R)-1-[2-chloro-3-(4-piperidinyloxy)phenyl]ethyl}oxy)-5-[5-(3-pyridinyl)-1H-benzimidazol-1-yl]-2-thiophenecarboxamide] | > 6.30
C[C@@H](Oc1cc(-n2cnc3ccccc32)sc1C(N)=O)c1cccc(OC2CCN(C)CC2)c1Cl [Example 13, 5-(1H-benzimidazol-1-yl)-3-[((1R)-1-{2-chloro-3-[(1-methyl-4-piperidinyl)oxy]phenyl}ethyl)oxy]-2-thiophenecarboxamide] | > 6.30
C[C@@H](Oc1cc(-n2cnc3ccccc32)sc1C(N)=O)c1cccc(OC2CCNCC2)c1Cl [Example 14, 5-(1H-Benzimidazol-1-yl)-3-({(1R)-1-[2-chloro-3-(4-piperidinyloxy)phenyl]ethyl}oxy)-2-thiophenecarboxamide] | > 6.30
C[C@@H](Oc1cc(-n2cnc3ccccc32)sc1C(N)=O)c1cccc(OCCN2CCOCC2)c1Cl [Example 15, 5-(1H-benzimidazol-1-yl)-3-{[(1R)-1-(2-chloro-3-{[2-(4-morpholinyl)ethyl]oxy}phenyl)ethyl]oxy)-2-thiophenecarboxamide] | > 6.30
